Measurements taken from ChEMBL document CHEMBL1201862, “PubChem BioAssay data set” (2004).
Counter-ions that a name gives are not always drawn.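 Where inhibition never reached the appropriate level, the endpoint shown equals the highest concentration tested. Otherwise, values were interpolated linearly from a five-concentration, 48-hour dose response in 96-well plates. The concentration for 50% growth inhibition is given as GI50.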 Activity calls are given as the source filed them. Cut-off read from the data, not from the text of the source: active = GI50 up to about 1.1 µM and inactive = higher. Starred links: 1 amine or outer side, 2 acyl side, 3 side chain; linkers in the order of their positions; H or OH if unused. Residues, ends and D or L forms follow the SMILES beside them. *: point of attachment. γGlu = O=C(O)[CH](CCC(=O)[*:2])N[*:1]; NHOH = ON*

Columns and labels:
Experiment in all cases: NCI anticancer screen, dose series, 48 h
[1] = test system: CCRF-CEM
[2] = test system: EKVX
[3] = test system: HCT-116
[4] = test system: HL-60
[5] = test system: IGROV-1
[6] = test system: K562
[7] = test system: LOX IMVI
[8] = test system: NCI/ADR-RES
[9] = test system: OVCAR-3
[10] = test system: OVCAR-4
[11] = test system: OVCAR-5
[12] = test system: OVCAR-8
[13] = test system: SF-295
[14] = test system: SN12C
[15] = test system: SW-620
[16] = test system: T47D
[17] = test system: TK-10
[18] = test system: U-251
[19] = test system: UACC-257
[20] = test system: UACC-62

Structure (SMILES)	GI50 [1]	GI50 [2]	GI50 [3]	GI50 [4]	GI50 [5]	GI50 [6]	GI50 [7]	GI50 [8]	GI50 [9]	GI50 [10]	GI50 [11]	GI50 [12]	GI50 [13]	GI50 [14]	GI50 [15]	GI50 [16]	GI50 [17]	GI50 [18]	GI50 [19]	GI50 [20]
CC(=O)O/C(=C1\C[C@H]2[C@@H]3CC=C4C[C@@H](OC(C)=O)CC[C@]4(C)[C@H]3CC[C@]2(C)C1=O)C(F)(F)F	1.95 µM (inactive)	12.7 µM (inactive)	6.15 µM (inactive)	3.51 µM (inactive)	5.56 µM (inactive)	0.977 µM (active)	1.86 µM (inactive)	7.16 µM (inactive)	5.87 µM (inactive)	11.4 µM (inactive)	29.4 µM (inactive)	5.18 µM (inactive)	16.2 µM (inactive)	8.97 µM (inactive)	5.61 µM (inactive)	7.4 µM (inactive)	12.2 µM (inactive)	5.43 µM (inactive)	6.98 µM (inactive)	8.77 µM (inactive)
CCOC(=O)C1C2C1C1C(C(=O)OCC)C21 (stereo not given)	> 100 µM (inactive)	> 100 µM (inactive)	> 100 µM (inactive)	63.8 µM (inactive)	> 100 µM (inactive)	> 100 µM (inactive)	> 100 µM (inactive)	> 100 µM (inactive)	> 100 µM (inactive)	> 100 µM (inactive)	> 100 µM (inactive)	> 100 µM (inactive)	> 100 µM (inactive)	> 100 µM (inactive)	> 100 µM (inactive)	49.2 µM (inactive)	> 100 µM (inactive)	> 100 µM (inactive)	61 µM (inactive)	> 100 µM (inactive)
COC(=O)CC(c1cn(S(=O)(=O)c2ccc(C)cc2)c2ccccc12)C1C[C@@H](C(=O)OC)N(C(=O)OC(C)(C)C)C1=O (stereo not given in full)	9.18 µM (inactive)	> 100 µM (inactive)	14.9 µM (inactive)	> 100 µM (inactive)	16.4 µM (inactive)	54.1 µM (inactive)	20.8 µM (inactive)	4.89 µM (inactive)	31 µM (inactive)	55.3 µM (inactive)	> 100 µM (inactive)	43.4 µM (inactive)	20.9 µM (inactive)	32.1 µM (inactive)	12.5 µM (inactive)	95.3 µM (inactive)	> 100 µM (inactive)	33.9 µM (inactive)	> 100 µM (inactive)	55.6 µM (inactive)
CCOC(=O)CNC(=O)C(CCC(=O)NO)NC(=O)CCC(N)C(=O)O (stereo not given) (γGlu-Glu(NHOH)-Gly-OEt; configuration not given here)	> 100 µM (inactive)	> 100 µM (inactive)	> 100 µM (inactive)	> 100 µM (inactive)	> 100 µM (inactive)	> 100 µM (inactive)	> 100 µM (inactive)	> 100 µM (inactive)	> 100 µM (inactive)	> 100 µM (inactive)	> 100 µM (inactive)	> 100 µM (inactive)	> 100 µM (inactive)	> 100 µM (inactive)	> 100 µM (inactive)	> 100 µM (inactive)	> 100 µM (inactive)	> 100 µM (inactive)	> 100 µM (inactive)	> 100 µM (inactive)
COc1ccc(Cc2nccc3cc(OC)c(OC)cc23)cc1OC [PAPAVERINE HYDROCHLORIDE]	> 100 µM (inactive)	45.5 µM (inactive)	39.3 µM (inactive)	45 µM (inactive)	> 100 µM (inactive)	37.3 µM (inactive)	60.8 µM (inactive)	26.7 µM (inactive)	> 100 µM (inactive)	> 100 µM (inactive)	> 100 µM (inactive)	64.9 µM (inactive)	84.9 µM (inactive)	> 100 µM (inactive)	> 100 µM (inactive)	19.5 µM (inactive)	> 100 µM (inactive)	> 100 µM (inactive)	> 100 µM (inactive)	> 100 µM (inactive)
